Experimental data reported in US20070128217A1 (priority 2003, published 2007).

Legend:
[1] = system: control sera (pooled serum of ten healthy LUMC hospital workers; commercial negative donor pooled serum from the Dutch bloodbank); format: binding, human; design: Binding of Control serum LUMC to linear peptides / Binding of Control serum Blood-bank to linear peptides / Binding of Control serum LUMC to looped peptides / Binding of Control Serum Blood-Bank to Looped peptides / Binding of Control serum LUMC to linear peptides of the protein M of SARS-CoV Urbani / Binding of Control serum Blood-bank to linear peptides of the protein M of SARS-CoV Urbani / Binding of Control serum LUMC to looped peptides of the protein M of SARS-CoV Urbani / Binding of Control Serum Blood-Bank to Looped peptides of the protein M of SARS-CoV Urbani: unit not given here
[2] = system: rabbit serum obtained by immunizing a rabbit with the SARS-CoV strain Frankfurt 1; format: binding; design: Binding of a rabbit serum to linear peptides / Binding of a rabbit serum to looped peptides / Rabbit serum linear peptides / Rabbit serum looped peptides / Binding of a rabbit serum to linear peptides of protein N of SARS-CoV Urbani (Rabbit serum linear peptides) / Binding of a rabbit serum to looped/cyclic peptides of protein N of SARS-CoV Urbani (Rabbit serum looped peptides): unit not given here
[3] = system: antibodies in sera from SARS patients (sera 1a, 1b, 2, 6, 37, 62, London, SARS-yellow, SARS-green); format: binding, human; design: Binding of serum 6 to linear peptides of protein X1 of SARS-CoV Urbani / Binding of serum 37 to linear peptides of protein X1 of SARS-CoV Urbani / Binding of serum 6 to looped/cyclic peptide (PEPSCAN-ELISA) / Binding of serum 37 to looped/cyclic peptide (PEPSCAN-ELISA) / Binding of serum 37 to looped/cyclic peptides of protein X1 of SARS-CoV Urbani / Binding of serum 6 to linear peptides of protein X2 / Binding of serum 37 to linear peptides of protein X2 / Binding of serum 37 to looped/cyclic peptides of protein X2 of SARS-CoV Urbani / Binding of serum 6 to linear peptides of protein M of SARS-CoV Urbani / Binding of serum 37 to linear peptides of protein M of SARS-CoV Urbani / Binding of serum 6 to looped/cyclic peptides of protein M of SARS-CoV Urbani / Binding of serum 37 to looped/cyclic peptides of protein M of SARS-CoV Urbani / Binding of serum 6 to linear peptides of protein X3 of SARS-CoV Urbani / Binding of serum 37 to linear peptides of protein X3 of SARS-CoV Urbani / Binding of serum 37 to looped/cyclic peptides of protein X3 of SARS-CoV Urbani / Binding of serum 6 to linear peptides of protein X4 of SARS-CoV Urbani / Binding of serum 37 to linear peptides of protein X4 of SARS-CoV Urbani / Binding of serum 37 to looped/cyclic peptides of protein X4 of SARS-CoV Urbani / Binding of serum 6 to linear peptides of protein X5 of SARS-CoV Urbani / Binding of serum 37 to linear peptides of protein X5 of SARS-CoV Urbani / Binding of serum 37 to looped/cyclic peptides of protein X5 of SARS-CoV Urbani / Binding of serum 6 to linear peptides of protein N of SARS-CoV Urbani / Binding of serum 37 to linear peptides of protein N of SARS-CoV Urbani / Binding of serum 6 to linear peptide (PEPSCAN-ELISA) / Binding of serum 1a to looped/cyclic peptides of protein N of SARS-CoV Urbani / Binding of serum 1b to looped/cyclic peptides of protein N of SARS-CoV Urbani / Binding of serum 2 to looped/cyclic peptides of protein N of SARS-CoV Urbani / Binding of serum 6 to looped/cyclic peptides of protein N of SARS-CoV Urbani / Binding of serum 37 to looped/cyclic peptides of protein N of SARS-CoV Urbani / Binding of serum 62 to looped/cyclic peptides of protein N of SARS-CoV Urbani / Binding of serum London to looped/cyclic peptides of protein N of SARS-CoV Urbani / Binding of serum SARS-green to looped/cyclic peptides of protein N of SARS-CoV Urbani: unit not given here

KSKNPLLYDANYFVC
Binding of Control Serum Blood-Bank to Looped peptides [1]: 0.5
Binding of Control serum Blood-bank to linear peptides [1]: 0.3
Binding of Control serum LUMC to linear peptides [1]: 0.7
Binding of Control serum LUMC to looped peptides [1]: 0.6
Binding of a rabbit serum to linear peptides [2]: 0.1
Binding of a rabbit serum to looped peptides [2]: 0.6
Binding of serum 1a to linear peptides of protein X1 of SARS-CoV Urbani [3]: 0.7
Binding of serum 1a to looped/cyclic peptide (PEPSCAN-ELISA) [3]: 0.6
Binding of serum 1b to linear peptides of protein X1 of SARS-CoV Urbani [3]: 0.4
Binding of serum 1b to looped/cyclic peptide (PEPSCAN-ELISA) [3]: 0.5
Binding of serum 2 to linear peptides of protein X1 of SARS-CoV Urbani [3]: 0.4
Binding of serum 2 to looped/cyclic peptide (PEPSCAN-ELISA) [3]: 0.4
Binding of serum 6 to linear peptides of protein X1 of SARS-CoV Urbani [3]: 0.4
Binding of serum 6 to looped/cyclic peptide (PEPSCAN-ELISA) [3]: 0.3
Binding of serum 37 to linear peptides of protein X1 of SARS-CoV Urbani [3]: 0.5
Binding of serum 37 to looped/cyclic peptide (PEPSCAN-ELISA) [3]: 0.6
Binding of serum 62 to linear peptides of protein X1 of SARS-CoV Urbani [3]: 0.4
Binding of serum 62 to looped/cyclic peptide (PEPSCAN-ELISA) [3]: 0.6
Binding of serum London to linear peptides of protein X1 of SARS-CoV Urbani [3]: 0.2
Binding of serum London to looped/cyclic peptide (PEPSCAN-ELISA) [3]: 0.2
Binding of serum SARS-green to linear peptides of protein X1 of SARS-CoV Urbani [3]: 0.2
Binding of serum SARS-green to looped/cyclic peptide (PEPSCAN-ELISA) [3]: 0.4
Binding of serum SARS-yellow to linear peptides of protein X1 of SARS-CoV Urbani [3]: 0.3
Binding of serum SARS-yellow to looped/cyclic peptide (PEPSCAN-ELISA) [3]: 0.4

LAAVYRINWVTGGIA
Binding of Control Serum Blood-Bank to Looped peptides of the protein M of SARS-CoV Urbani [1]: 0.4
Binding of Control serum Blood-bank to linear peptides of the protein M of SARS-CoV Urbani [1]: 0.6
Binding of Control serum LUMC to linear peptides of the protein M of SARS-CoV Urbani [1]: 0.5
Binding of Control serum LUMC to looped peptides of the protein M of SARS-CoV Urbani [1]: 0.6
Rabbit serum linear peptides [2]: 0.4
Rabbit serum looped peptides [2]: 0.0
Binding of serum 1a to linear peptides of protein M of SARS-CoV Urbani [3]: 0.7
Binding of serum 1a to looped/cyclic peptides of protein M of SARS-CoV Urbani [3]: 0.8
Binding of serum 1b to linear peptides of protein M of SARS-CoV Urbani [3]: 0.5
Binding of serum 1b to looped/cyclic peptides of protein M of SARS-CoV Urbani [3]: 0.2
Binding of serum 2 to linear peptides of protein M of SARS-CoV Urbani [3]: 0.6
Binding of serum 2 to looped/cyclic peptides of protein M of SARS-CoV Urbani [3]: 0.5
Binding of serum 6 to linear peptides of protein M of SARS-CoV Urbani [3]: 0.3
Binding of serum 6 to looped/cyclic peptides of protein M of SARS-CoV Urbani [3]: 0.7
Binding of serum 37 to linear peptides of protein M of SARS-CoV Urbani [3]: 0.8
Binding of serum 37 to looped/cyclic peptides of protein M of SARS-CoV Urbani [3]: 0.5
Binding of serum 62 to linear peptides of protein M of SARS-CoV Urbani [3]: 0.9
Binding of serum 62 to looped/cyclic peptides of protein M of SARS-CoV Urbani [3]: 0.5
Binding of serum London to linear peptides of protein M of SARS-CoV Urbani [3]: 0.3
Binding of serum London to looped/cyclic peptides of protein M of SARS-CoV Urbani [3]: 0.2
Binding of serum SARS-green to linear peptides of protein M of SARS-CoV Urbani [3]: 0.3
Binding of serum SARS-green to looped/cyclic peptides of protein M of SARS-CoV Urbani [3]: 0.3
Binding of serum SARS-yellow to linear peptides of protein M of SARS-CoV Urbani [3]: 0.1
Binding of serum SARS-yellow to looped/cyclic peptides of protein M of SARS-CoV Urbani [3]: 0.3

LAWIMLLQFAYSNRN
Binding of Control Serum Blood-Bank to Looped peptides of the protein M of SARS-CoV Urbani [1]: 0.6
Binding of Control serum Blood-bank to linear peptides of the protein M of SARS-CoV Urbani [1]: 0.6
Binding of Control serum LUMC to linear peptides of the protein M of SARS-CoV Urbani [1]: 0.2
Binding of Control serum LUMC to looped peptides of the protein M of SARS-CoV Urbani [1]: 0.6
Rabbit serum linear peptides [2]: 0.8
Rabbit serum looped peptides [2]: 0.1
Binding of serum 1a to linear peptides of protein M of SARS-CoV Urbani [3]: 0.6
Binding of serum 1a to looped/cyclic peptides of protein M of SARS-CoV Urbani [3]: 0.7
Binding of serum 1b to linear peptides of protein M of SARS-CoV Urbani [3]: 0.5
Binding of serum 1b to looped/cyclic peptides of protein M of SARS-CoV Urbani [3]: 0.7
Binding of serum 2 to linear peptides of protein M of SARS-CoV Urbani [3]: 0.4
Binding of serum 2 to looped/cyclic peptides of protein M of SARS-CoV Urbani [3]: 0.4
Binding of serum 6 to linear peptides of protein M of SARS-CoV Urbani [3]: 0.2
Binding of serum 6 to looped/cyclic peptides of protein M of SARS-CoV Urbani [3]: 0.7
Binding of serum 37 to linear peptides of protein M of SARS-CoV Urbani [3]: 0.7
Binding of serum 37 to looped/cyclic peptides of protein M of SARS-CoV Urbani [3]: 0.6
Binding of serum 62 to linear peptides of protein M of SARS-CoV Urbani [3]: 0.7
Binding of serum 62 to looped/cyclic peptides of protein M of SARS-CoV Urbani [3]: 0.6
Binding of serum London to linear peptides of protein M of SARS-CoV Urbani [3]: 0.2
Binding of serum London to looped/cyclic peptides of protein M of SARS-CoV Urbani [3]: 0.2
Binding of serum SARS-green to linear peptides of protein M of SARS-CoV Urbani [3]: 0.3
Binding of serum SARS-green to looped/cyclic peptides of protein M of SARS-CoV Urbani [3]: 0.4
Binding of serum SARS-yellow to linear peptides of protein M of SARS-CoV Urbani [3]: 0.0
Binding of serum SARS-yellow to looped/cyclic peptides of protein M of SARS-CoV Urbani [3]: 0.3
